# What was measured:
# [1] = biological target: T1, Human M4 (Homo sapiens, UniProt P08173); assay: mAChR M4 cell-based functional assay (calcium flux, potentiation of EC20 acetylcholine response in CHO-K1 hM4-Gqi5 cells); settings: for Emax at 30 µM: CHO-K1, % ACh maximum at 30 μM, human M4; for EC50: positive allosteric modulator mode, EC20 acetylcholine, CHO-K1 cells with human M4 and Gqi5
# T1 construct: expressed in transfected cells; host or cells: CHO-K1 (ATCC), stably expressing hM4 and Gqi5
# T1 sequence (P08173 1-479): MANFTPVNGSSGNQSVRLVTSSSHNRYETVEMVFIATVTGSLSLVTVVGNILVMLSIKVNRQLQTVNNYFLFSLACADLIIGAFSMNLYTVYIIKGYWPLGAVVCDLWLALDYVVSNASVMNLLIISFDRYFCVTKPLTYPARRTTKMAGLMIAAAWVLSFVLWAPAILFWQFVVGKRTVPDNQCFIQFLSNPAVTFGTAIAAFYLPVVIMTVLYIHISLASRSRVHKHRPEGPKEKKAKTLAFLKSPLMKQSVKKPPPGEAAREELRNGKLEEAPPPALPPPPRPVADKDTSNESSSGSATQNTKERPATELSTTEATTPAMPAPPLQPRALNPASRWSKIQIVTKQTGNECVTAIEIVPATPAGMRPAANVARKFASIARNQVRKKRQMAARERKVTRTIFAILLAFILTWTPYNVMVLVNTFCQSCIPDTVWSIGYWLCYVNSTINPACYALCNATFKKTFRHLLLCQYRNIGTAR
# Protocol: Human M4 cDNA, along with the chimeric G protein Gqi5, were transfected into Chinese hamster ovary (CHO—K1) cells purchased from the American Type Culture Collection using Lipofectamine2000. hM4-Gqi5 cells were grown in Ham's F-12 medium containing 10% heat-inactivated fetal bovine serum (FBS), 20 mM HEPES, 50 μg/mL G418 sulfate, and 500 μg/mL Hygromycin B. rM4-Gqi5 cells were grown in DMEM containing 10% heat-inactivated FBS, 20 mM HEPES, 400 μg/mL G418 sulfate, and 500 μg/mL Hygromycin B.
# For high throughput measurement of agonist-evoked increases in intracellular calcium, CHO—K1 cells stably expressing muscarinic receptors were plated in growth medium lacking G418 and hygromycin at 15,000 cells/20 μL/well in Greiner 384-well black-walled, tissue culture (TC)-treated, clear-bottom plates (VWR). Cells were incubated overnight at 37° C. and 5% CO2. The next day, cells were washed using an ELX 405 (BioTek) with assay buffer; the final volume was then aspirated to 20 μL. Next, 20 μL of a 2.3 μM stock of Fluo-4/acetoxymethyl ester (Invitrogen, Carlsbad, Calif.), prepared as a 2.3 mM stock in DMSO and mixed in a 1:1 ratio with 10% (w/v) Pluronic F-127 and diluted in assay buffer, was added to the wells and the cell plates were incubated for 50 min at 37° C. and 5% CO2. Dye was removed by washing with the ELX 405 and the final volume was aspirated to 20 μL. Compound master plates were formatted in an 11 point concentration-response curve (CRC) format (1:3 dilutions) in 100% DMSO with a starting concentration of 10 mM using a BRAVO liquid handler (Agilent). Test compound CRCs were then transferred to daughter plates (240 nL) using the Echo acoustic plate reformatter (Labcyte, Sunnyvale, Calif.) and then diluted into assay buffer (40 μL) to a 2× stock using a Thermo Fisher Combi (Thermo Fisher Scientific, Waltham, Mass.).
# Calcium flux was measured using the Functional Drug Screening System (FDSS) 6000 or 7000 (Hamamatsu Corporation, Tokyo, Japan) as an increase in the fluorescent static ratio. Compounds were applied to cells (20 μL, 2×) using the automated system of the FDSS at 2-4 seconds into the protocol and the data were collected at 1 Hz. At 144 seconds, 10 μL of an EC20 concentration of the muscarinic receptor agonist acetylcholine was added (5×), followed by the addition of 12 μL of an EC80 concentration of acetylcholine at the 230 second time point (5×). Agonist activity was analyzed as a concentration-dependent increase in calcium mobilization upon compound addition. Positive allosteric modulator activity was analyzed as a concentration-dependent increase in the EC20 acetylcholine response. With the acetylcholine EC20 set as baseline, the test compound EC50 is determined as the concentration that produces an increase above baseline of 50% of the maximum increase in acetylcholine response elicted by the test compound. Antagonist activity was analyzed as a concentration-dependent decrease in the EC80 acetylcholine response. Concentration-response curves were generated using a four-parameter logistical equation in XLFit curve fitting software (IDBS, Bridgewater, N.J.) for Excel (Microsoft, Redmond, Wash.) or Prism (GraphPad Software, Inc., San Diego, Calif.).
# Compounds were synthesized as described above. Activity (EC50 and Emax) was determined in the mAChR M4 cell-based functional assay as described above and the data are shown in Table 3. The compound numbers correspond to the compound numbers used in Examples 2-4 and Tables 1 and 2.
# [2] = patients treated with AChE inhibitors such as tacrine; cited from earlier work
Structure (SMILES),Emax at 30 µM [1] [%],EC50 [1] [µM],patients with elevated liver transaminases (hepatotoxicity) [2]
"Cc1nnc2ccc(C(=O)NC3CN(c4ncc(OC(C)C)cn4)C3)cc2c1C [Compound 20, N-[1-(5-isopropoxypyrimidin-2-yl)azetidin-3-yl]-3,4-dimethyl-cinnoline-6-carboxamide]",87.8,3.2,–
"Cc1cc(C)c2cc(C(=O)NC3CN(c4cc(Cl)ncc4Cl)C3)ccc2n1 [Compound 5, N-[1-(2,5-dichloro-4-pyridyl)azetidin-3-yl]-2,4-dimethyl-quinoline-6-carboxamide]",52.5,0.19,–
"Cc1nnc2ccc(C(=O)NC3CN(c4ncccc4F)C3)cc2c1C [Compound 34, N-[1-(3-fluoro-2-pyridyl)azetidin-3-yl]-3,4-dimethyl-cinnoline-6-carboxamide]",83.4,1.22,–
"Cc1nnc2ccc(C(=O)NCc3ccc(C(C)(C)O)cc3)cc2c1C [Compound 16, N-[[4-(1-hydroxy-1-methyl-ethyl)phenyl]methyl]-3,4-dimethyl-cinnoline-6-carboxamide]",71.2,> 10,–
"Cc1nnc2ccc(C(=O)NC3CN(c4ncc(C5CC5)cc4Cl)C3)cc2c1C [Compound 27, N-[1-(3-chloro-5-cyclopropyl-2-pyridyl)azetidin-3-yl]-3,4-dimethyl-cinnoline-6-carboxamide]",77.2,1.39,–
"Cc1nnc2ccc(C(=O)NC3CN(c4ncc(C#N)cc4Cl)C3)cc2c1C [Compound 29, N-[1-(3-chloro-5-cyano-2-pyridyl)azetidin-3-yl]-3,4-dimethyl-cinnoline-6-carboxamide]",71.6,0.3,–
Nc1c2c(nc3ccccc13)CCCC2 [tacrine],–,–,about 30%

# Second part, led by results:
Emax at 30 µM [1] [%],EC50 [1] [µM],Structure (SMILES),patients with elevated liver transaminases (hepatotoxicity) [2]
39.3,0.54,"COc1cc(N2CC(NC(=O)c3ccc4nc(C)cc(C)c4c3)C2)c(Cl)cn1 [Compound 2, N-[1-(5-chloro-2-methoxy-4-pyridyl)azetidin-3-yl]-2,4-dimethyl-quinoline-6-carboxamide]",–
88,0.75,"Cc1nnc2ccc(C(=O)NC3CN(c4ccnc(C(F)(F)F)c4)C3)cc2c1C [Compound 37, 3,4-dimethyl-N-[1-[2-(trifluoromethyl)-4-pyridyl]azetidin-3-yl]cinnoline-6-carboxamide]",–
79.2,> 10,"Cc1nnc2ccc(C(=O)NC3CN(c4ccc(F)cn4)C3)cc2c1C [Compound 24, N-[1-(5-fluoro-2-pyridyl)azetidin-3-yl]-3,4-dimethyl-cinnoline-6-carboxamide]",–
74.1,0.37,"COc1cc(N2CC(NC(=O)c3ccc4nnc(C)c(C)c4c3)C2)c(Cl)cn1 [Compound 14, N-[1-(5-chloro-2-methoxy-4-pyridyl)azetidin-3-yl]-3,4-dimethyl-cinnoline-6-carboxamide]",–
26.1,0.37,"Cc1cc(C)c2cc(C(=O)NC3CN(c4cc(Cl)nc(Cl)c4)C3)ccc2n1 [Compound 9, N-[1-(2,6-dichloro-4-pyridyl)azetidin-3-yl]-2,4-dimethyl-quinoline-6-carboxamide]",–
26.4,> 10,"Cc1cc(C)c2cc(C(=O)NCc3ccncc3)ccc2n1 [Compound 6, 2,4-dimethyl-N-(4-pyridylmethyl)quinoline-6-carboxamide]",–
81.7,0.74,"Cc1nnc2ccc(C(=O)NC3CN(c4ccc(F)c(F)c4)C3)cc2c1C [Compound 18, N-[1-(3,4-difluorophenyl)azetidin-3-yl]-3,4-dimethyl-cinnoline-6-carboxamide]",–
80.8,1.46,"Cc1nnc2ccc(C(=O)NC3CN(c4ccc(OC(F)F)nc4)C3)cc2c1C [Compound 31, N-[1-[6-(difluoromethoxy)-3-pyridyl]azetidin-3-yl]-3,4-dimethyl-cinnoline-6-carboxamide]",–
49.3,5.3,"Cc1cc(C)c2cc(C(=O)NC3CN(c4ncc(OC(C)C)cn4)C3)ccc2n1 [Compound 4, N-[1-(5-isopropoxypyrimidin-2-yl)azetidin-3-yl]-2,4-dimethyl-quinoline-6-carboxamide]",–
